# Source: EP2468728A1, “2-(1-phenyl-4,5,6,7-tetrahydro-1H-indazol-4-YL)ethylamine derivatives useful as sigma receptor inhibitors” (Laboratorios del. Dr. Esteve, S.A., priority 2010, dated 2012)
# Target: σ1-receptor (Cavia porcellus, UniProt Q60492)
# Experiment: sigma-1 receptor binding assay, [3H](+)-pentazocine, brain membranes
# Details: 1µM compound; [3H](+)-pentazocine 0.5 nM; guinea pig brain membranes; 37°C for 150 min; read-out: binding sigma-1 % Inh (1µM)
# Description: Some representative compounds of the invention were tested for their activity as sigma (sigma-1) inhibitors. The following protocols were followed:
# Brain membrane preparation and binding assays for the σ1-receptor were performed as described (DeHaven-Hudkins et al., 1992) with some modifications. In brief, guinea pig brains were homogenized in 10 vols. (w/v) of Tris-HCl 50 mM 0.32 M sucrose, pH 7.4, with a Kinematica Polytron PT 3000 at 15000 r.p.m. for 30 s. The homogenate was centrifuged at 1000g for 10 min at 4°C and the supernatants collected and centrifuged again at 48000g for 15 min at 4°C. The pellet was resuspended in 10 volumes of Tris-HCl buffer (50 mM, pH 7.4), incubated at 37°C for 30 min, and centrifuged at 48000g for 20 min at 4°C. Following this, the pellet was resuspended in fresh Tris-HCl buffer (50 mM, pH 7.4) and stored on ice until use.
# Each assay tube contained 10 µL of [^3H](+)-pentazocine (final concentration of 0.5 nM), 900 µL of the tissue suspension to a final assay volume of 1 mL and a final tissue concentration of approximately 30 mg tissue net weight/mL. Non-specific binding was defined by addition of a final concentration of 1 µM haloperidol. All tubes were incubated at 37°C for 150 min before termination of the reaction by rapid filtration over Schleicher & Schuell GF 3362 glass fibre filters [previously soaked in a solution of 0,5% polyethylenimine for at least 1 h]. Filters were then washed with four times with 4 mL of cold Tris-HCl buffer (50 mM, pH 7.4). Following addition of scintillation cocktail, the samples were allowed to equilibrate overnight. The amount of bound radioactivity was determined by liquid scintillation spectrometry using a Wallac Winspectral 1414 liquid scintillation counter. Protein concentrations were determined by the method of Lowry et al. (1951).
# σ1-receptor, sequence (Q60492 whole entry): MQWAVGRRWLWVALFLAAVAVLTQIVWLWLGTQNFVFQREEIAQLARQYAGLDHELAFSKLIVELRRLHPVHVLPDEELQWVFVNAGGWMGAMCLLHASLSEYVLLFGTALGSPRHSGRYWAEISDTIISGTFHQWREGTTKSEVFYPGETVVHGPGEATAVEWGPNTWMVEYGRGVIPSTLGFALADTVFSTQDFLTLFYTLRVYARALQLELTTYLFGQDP
row,inhibition at 1 µM,Compound
1,76.4%,"[O-][N+]1(CC[C@H]2CCCc3c2cnn3-c2ccccc2)CCOCC1 [Example 3, (R)-4-(2-(1-phenyl-4,5,6,7-tetrahydro-1H-indazol-4-yl)ethyl)morpholine N-oxide]"
2,60%,"[O-][N+]1(CCC2CCCc3c2cnn3-c2ccccc2)CCOCC1 (stereo not drawn) [Example 1, 4-(2-(1-phenyl-4,5,6,7-tetrahydro-1H-indazol-4-yl)ethyl)morpholine N-oxide]"
3,98%,"[O-][N+]1(CC[C@@H]2CCCc3c2cnn3-c2ccccc2)CCOCC1 [Example 5, (S)-4-(2-(1-phenyl-4,5,6,7-tetrahydro-1H-indazol-4-yl)ethyl)morpholine N-oxide]"
